Measurements published in BindingDB's records for doi:10.1021/jm00126a016 (G. D. Searle, 1989).

Biological target: Glutamate receptor ionotropic NMDA, PCP site (Rattus norvegicus)
Test: Inhibition of [3H]1-[1-(2-thienyl) piperidine ([3H]TCP) binding to phencyclidine receptor

In the case of `CN1CCc2ccccc2C1`, the IC50 is reported as > 30 µM.
With `CC1Cc2ccccc2C(C)N1` (stereo not drawn) the IC50 was > 30 µM.
With `c1ccc2c(c1)CCNC2c1ccc2ccccc2c1` (stereo not drawn) the IC50 was > 30 µM.
In the case of `C=CCN1C(C)Cc2ccccc2C1C` (stereo not drawn), the IC50 is reported as 5.4 µM.
`c1ccc(C2NCc3ccccc32)cc1` (stereo not drawn) was tested, and the IC50 was > 30 µM.
`CC(C)C1NCCc2ccccc21` (stereo not drawn) showed an IC50 of 11 µM.
`Clc1ccc(C2NCCc3ccccc32)cc1` (stereo not drawn) showed an IC50 of 5.3 µM.
`Fc1ccc(C2NCCc3ccccc32)cc1` (stereo not drawn) gave an IC50 of 4.9 µM.
